# In US20050009840A1 (SUGEN, INC., priority 2003, published 2005):
# Biological target: T1, Met kinase domain (GST fusion protein) (Homo sapiens, UniProt P08581)
# T1 construct: Purified GST fusion protein containing the Met kinase domain
# Experiment: Met transphosphorylation assay (ELISA, poly(glu-tyr) substrate);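 further: Cell-free ELISA with plate-bound poly(Glu:Tyr 4:1) phosphorylated by GST-fused Met kinase domain plus ATP and Mn2+, phosphotyrosine detected by anti-phosphotyrosine antibody with HRP and ABTS read-out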
# Format: biochemical
# Details: plain numbers in column Met IC50 (μM) of Table 2; read-out: Met IC50
# T1 sequence (P08581 1078-1345 limits assumed): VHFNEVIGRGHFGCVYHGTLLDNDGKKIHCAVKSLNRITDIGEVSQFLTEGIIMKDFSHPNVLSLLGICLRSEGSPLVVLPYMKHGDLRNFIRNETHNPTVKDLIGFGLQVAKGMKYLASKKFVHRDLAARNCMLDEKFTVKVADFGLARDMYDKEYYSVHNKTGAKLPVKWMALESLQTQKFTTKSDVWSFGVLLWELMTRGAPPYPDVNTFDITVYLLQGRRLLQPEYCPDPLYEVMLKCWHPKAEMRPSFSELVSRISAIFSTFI
row,SMILES,IC50 [µM]
1,"CC(Oc1cc(-c2ccc(N3CCCS3(=O)=O)cc2)cnc1N)c1c(F)ccc(F)c1Cl (stereo not drawn) [Example I-365, 3-[1-(2-Chloro-3,6-difluoro-phenyl)-ethoxy]-5-[4-(1,1-dioxo-1lambda*6*- isothiazolidin-2-yl)-phenyl]-pyridin-2-ylamine]",0.14
2,"CC(Oc1cc(-c2cc3ccccc3s2)cnc1N)c1c(Cl)ccc(F)c1Cl (stereo not drawn) [Example I-370, 5-Benzo[b]thiophen-2-yl-3-[1-(2,6-dichloro-3-fluoro-phenyl)-ethoxy]-pyridin-2-ylamine]",1.95
3,"CC(Oc1cc(-c2ccc(NC(=O)NCCN3CCCC3)cc2)cnc1N)c1c(Cl)ccc(F)c1Cl (stereo not drawn) [Example I-372, 1-(4-{6-Amino-5-[1-(2,6-dichloro-3-fluoro-phenyl)-ethoxy]-pyridin-3-yl}-phenyl)-3-(2-pyrrolidin-1-yl-ethyl)-urea]",0.21
4,"CC(Oc1cc(-c2ccc(NC(=O)N3CC[C@@H](N)C3)cc2)cnc1N)c1c(F)ccc(F)c1Cl (stereo partly drawn) [Example I-379, (R)-3-Amino-pyrrolidine-1-carboxylic acid (4-{6-amino-5-[1-(2-chloro-3,6-difluoro-phenyl)-ethoxy]-pyridin-3-yl}-phenyl)-amide]",0.069
5,"CC(Oc1cc(-c2ccc(NC(=O)N3CC[C@H](N)C3)cc2)cnc1N)c1c(F)ccc(F)c1Cl (stereo partly drawn) [Example I-380, (S)-3-Amino-pyrrolidine-1-carboxylic acid (4-{6-amino-5-[1-(2-chloro-3,6-difluoro-phenyl)-ethoxy}-pyridin-3-yl}-phenyl)-amide]",0.075
6,"CC(Oc1cc(-c2ccc(NC(=O)NCCO)cc2)cnc1N)c1c(F)ccc(F)c1Cl (stereo not drawn) [Example I-381, 1-(4-{6-Amino-5-[1-(2-chloro-3,6-difluoro-phenyl)-ethoxy]-pyridin-3-yl}-phenyl)-3-(2-hydroxy-ethyl)-urea]",0.11
7,"CC(Oc1cc(-c2ccc(NC(=O)NCCN3CCCC3)cc2)cnc1N)c1c(F)ccc(F)c1Cl (stereo not drawn) [Example I-383, 1-(4-{6-Amino-5-[1-(2-chloro-3,6-difluoro-phenyl)-ethoxy]-pyridin-3-yl}-phenyl)-3-(2-pyrrolidin-1-yl-ethyl)-urea]",0.11
8,"CC(Oc1cc(-c2ccc(NC(=O)NCCN3CCOCC3)cc2)cnc1N)c1c(F)ccc(F)c1Cl (stereo not drawn) [Example I-384, 1-(4-{6-Amino-5-[1-(2-chloro-3,6-difluoro-phenyl)-ethoxy]-pyridin-3-yl}-phenyl)-3-(2-morpholin-4-yl-ethyl)-urea]",0.13
9,"CC(Oc1cc(-c2ccc(NC(=O)N3CCC[C@@H]3CN3CCCC3)cc2)cnc1N)c1c(F)ccc(F)c1Cl (stereo partly drawn) [Example I-385, (R)-2-Pyrrolidin-1-ylmethyl-pyrrolidine-1-carboxylic acid (4-{6-amino-5-[1-(2-chloro-3,6-difluoro-phenyl)-ethoxy]-pyridin-3-yl}-phenyl)-amide]",0.13
10,"CC(Oc1cc(-c2cccc(C(=O)N3C[C@@H](C)N[C@@H](C)C3)c2)cnc1N)c1c(Cl)cccc1Cl (stereo partly drawn) [Example I-387, (3-{6-Aminno-5-[1-(2,6-dichloro-phenyl)-ethoxy]-pyridin-3-yl}-phenyl)-((3R,5S)-3,5-dimethyl-piperazin-1-yl)-methanone]",0.16
11,"CC(Oc1cc(-c2cccc(C(=O)N3CCC(N4CCCC4)CC3)c2)cnc1N)c1c(Cl)cccc1Cl (stereo not drawn) [Example I-388, (3-{6-Amino-5-[1-(2,6-dichloro-phenyl)-ethoxy]-pyridin-3-yl}-phenyl)-(4-pyrrolidin-1-yl-piperidin-1-yl)-methanone]",0.1
12,"CC(Oc1cc(-c2cccc(C(=O)NCCN3CCCC3)c2)cnc1N)c1c(Cl)cccc1Cl (stereo not drawn) [Example I-389, 3-{6-Amino-5-[1-(2,6-dichloro-phenyl)-ethoxy]-pyridin-3-yl}-N-(2-pyrrolidin-1-yl-ethyl)-benzamide]",0.13
13,"CC(Oc1cc(-c2cccc(C(=O)NCCN3CCOCC3)c2)cnc1N)c1c(Cl)cccc1Cl (stereo not drawn) [Example I-390, 3-{6-Amino-5-[1-(2,6-dichloro-phenyl)-ethoxy]-pyridin-3-yl}-N-(2-morpholin-4-yl-ethyl)-benzamide]",0.12

# Results, then the molecule that gave them:
row,IC50 [µM],SMILES
1,0.076,"CC(Oc1cc(-c2ccc(NS(C)(=O)=O)cc2)cnc1N)c1c(Cl)ccc(F)c1Cl (stereo not drawn) [Example I-366, N-(4-{6-Amino-5-[1-(2,6-dichloro-3-fluoro-phenyl)-ethoxy]-pyridin-3-yl}-phenyl)-methanesulfonamide]"
2,0.066,"C[C@@H](Oc1cc(-c2ccc(NS(C)(=O)=O)cc2)cnc1N)c1c(F)ccc(F)c1Cl [Example I-368, N-(4-{6-Amino-5-[(R)-1-(2-chloro-3,6-difluoro-phenyl)-ethoxy]-pyridin-3-yl}-phenyl)-methanesulfonamide]"
3,0.055,"CC(Oc1cc(-c2ccsc2)cnc1N)c1c(Cl)ccc(F)c1Cl (stereo not drawn) [Example I-369, 3-[1-(2,6-Dichloro-3-fluoro-phenyl)-ethoxy]-5-thiophen-3-yl-pyridin-2-ylamine]"
4,0.057,"CC(Oc1cc(-c2ccc(NC(=O)N3CCN(C)CC3)cc2)cnc1N)c1c(Cl)ccc(F)c1Cl (stereo not drawn) [Example I-371, 4-Methyl-piperazine-1-carboxylic acid (4-{6-amino-5-[1-(2,6-dichloro-3-fluoro-phenyl)-ethoxy]-pyridin-3-yl}-phenyl)-amide]"
5,0.064,"CC(Oc1cc(-c2ccc(NC(=O)NCCO)cc2)cnc1N)c1c(Cl)ccc(F)c1Cl (stereo not drawn) [Example I-373, 1-(4-{6-Amino-5-[1-(2,6-dichloro-3-fluoro-phenyl)-ethoxy]-pyridin-3-yl}-phenyl)-3-(2-hydroxy-ethyl)-urea]"
6,0.062,"CC(Oc1cc(-c2ccc(NC(=O)NCCN3CCOCC3)cc2)cnc1N)c1c(Cl)ccc(F)c1Cl (stereo not drawn) [Example I-374, 1-(4-{6-Amino-5-[1-(2,6-dichloro-3-fluoro-phenyl)-ethoxy]-pyridin-3-yl}-phenyl)-3-(2-morpholin-4-yl-ethyl)-urea]"
7,0.053,"CC(Oc1cc(-c2ccc(NC(=O)N3CC[C@@H](N)C3)cc2)cnc1N)c1c(Cl)ccc(F)c1Cl (stereo partly drawn) [Example I-375, (R)-3-Amino-pyrrolidine-1-carboxylix acid (4-{6-amino-5-[1-(2,6-dichloro-3-fluoro-phenyl)-ethoxy]-pyridin-3-yl}-phenyl)-amide]"
8,0.052,"CC(Oc1cc(-c2ccc(NC(=O)N3CC[C@H](N)C3)cc2)cnc1N)c1c(Cl)ccc(F)c1Cl (stereo partly drawn) [Example I-376, (S)-3-Amino-pyrrolidine-1-carboxylic acid (4-{6-amino-5-[1-(2,6-dichloro-3-fluoro-phenyl)-ethoxy]-pyridin-3-yl}-phenyl)-amide]"
9,0.04,"CC(Oc1cc(-c2ccc(NC(=O)NC3CCN(C)CC3)cc2)cnc1N)c1c(Cl)ccc(F)c1Cl (stereo not drawn) [Example I-377, 1-(4-{6-Amino-5-[1-(2,6-dichloro-3-fluoro-phenyl)-ethoxy]-pyridin-3-yl}-phenyl)-3-(1-methyl-pipendin-4-yl)-urea]"
10,0.038,"CC(Oc1cc(-c2ccc(NC(=O)NC3CCN(C)CC3)cc2)cnc1N)c1c(F)ccc(F)c1Cl (stereo not drawn) [Example I-378, 1-(4-{6-Amino-5-[1-(2-chloro-3,6-difluoro-phenyl)-ethoxy]-pyridin-3-yl}-phenyl)-3-(1-methyl-pipendin-4-yl)-urea]"
11,0.082,"CC(Oc1cc(-c2ccc(NC(=O)N3CCN(C)CC3)cc2)cnc1N)c1c(F)ccc(F)c1Cl (stereo not drawn) [Example I-382, 4-Methyl-piperazine-1-carboxylic acid (4-{6-amino-5-[1-(2-chloro-3,6-difluoro-phenyl)-ethoxy]-pyridin-3-yl}-phenyl)-amine]"
